For one experiment, the system named is JNK. Kind of experiment: JNK and c-Jun activation after Aβ42 stress in PKR−/− primary cortical neurons. The class given is cell-based, mouse. The settings on record: 10 μM, 2 μM Aβ42. How it is done:
To obtain primary cortical neuronal cultures, E15.5 mice embryos were dissected in PBS (Phosphate Buffered Saline) 6% glucose, on ice. Embryos cortices were minced into small pieces and treated with PBS glucose trypsin (Sigma Aldrich, Saint-Louis, USA) for 20 min at 37° C. Dissociated cortical cells were cultured in Neurobasal media complemented with B27, Glutamax and penicillin-streptomycin (Gibco). Neurons were cultured at 37° C., 5% CO2 on pre-coated with poly-L-lysin (Sigma Aldrich) petri dishes. Neurons were cultured to maturity (7 days) before use.
To induce […] stress 2 μM of Aβ1-42 (Thermo Fisher Scientific, Mass., USA) were used during 5 h on cortical neurons. Aβ42-1 inversed peptide (Thermo Fisher Scientific) was used as negative control. AP 1-42 and Aβ42-1 were dissolved in pure water and incubated at 37° C. for 48 h before use.
To inhibit JNK, cortical neurons were pre-treated with 10 μM of XG-104 1 h before cell-stress treatment.
For immunoblot analysis cells were lysed on ice in a lysis buffer containing […] NaPi pH 7.8, […] NaCl, 1% Triton, 0.5% DOC, 0.1% SDS, 10% glycerol, 0.1 μM calyculin A, 1 mM Na3VO4 and 1× of a protease inhibitor cocktail (Sigma Aldrich). Lysates were sonicated and centrifugated 10 min at 15000 g at 4° C. The supernatant protein concentration was determined with the Micro BCA protein assay kit (Thermo Scientific). Thirty micrograms of proteins were resolved on SDS-PAGE and transferred onto nitrocellulose membrane. After blocking with TBS 5% skim milk, the membranes were probed with primary antibodies to JNK full, c-Jun, PKR, eIF2α (Santa Cruz, Danvers, USA), pJNK (Millipore, Billerica, USA), phosphor eIF2a (Thermo Fisher Scientific), PARP and tubulin (Cell Signaling, Danvers, USA). IR Dyes 800 and 700 (Rockland Immunochemical Inc, Gilbertsville, USA) antibodies were used as secondary antibodies. Blots were reveled with Odyssey imaging system (LI-COR Biosciences, Lincoln, USA).

A further experiment deals with human whole blood. As to the kind of experiment: PMA+ionomycin-induced cytokine release in human whole blood. The class given is cell-based. The settings on record: 1, 3, 10 μM; 4 hours. As to the method:
FIG. 19 JNK inhibition and IL-2 release in human whole blood. The JNK inhibitor with SEQ ID NO: 172 was added at three different concentrations, namely 1, 3 and 10 μM 1 h before whole blood stimulation with PMA+ionomycin (25/700 ng/mL, 50/800 ng/mL and 50/1000 ng/mL) for 4 hours.
FIG. 20 JNK inhibition and IFN-γ release in human whole blood. The JNK inhibitor with SEQ ID NO: 172 was added at three different concentrations, namely 1, 3 and 10 μM 1 h before whole blood stimulation with PMA+ionomycin (25/700 ng/mL, 50/800 ng/mL and 50/1000 ng/mL) for 4 hours.
FIG. 21 JNK inhibition and TNF-α release in human whole blood. The JNK inhibitor with SEQ ID NO: 172 was added at three different concentrations, namely 1, 3 and 10 μM 1 h before whole blood stimulation with PMA+ionomycin (25/700 ng/mL, 50/800 ng/ml and 50/1000 ng/mL) for 4 hours.
Whole blood is collected from anesthetized rat or human healthy volunteers using a venipuncture connected to a pre-labeled vacuum tube containing sodium citrate. Tubes are gently mixed by inversion 7-8 times; and are then kept at RT until stimulation. JNK inhibitor of SEQ ID NO: 172 is prepared 6 times concentrated in PBS, and 30 μl/well of mix is added into 96-well plate. Whole blood is diluted by 1:2 in PBS and 120 μl of diluted blood is added in each well where either PBS alone or JNK inhibitor of SEQ ID NO: 172 has been previously added. Whole blood is incubated at 37° C.; 85 rpm (Stuart Orbital incubator SI500) for 60 min. Activators (LPS) are the prepared, 30 μl/well of LPS, 6 times concentrated. After 60 min incubation, LPS is added to the blood, blood is mixed by pipetting up and down, and then kept for 4 h under agitation (85 rpm), at 37° C. After the 4 h incubation, the plates are centrifuged at about 770 g, 4° C. for 15 min in a pre-cooled centrifuge. […] Cytokine (IL-6, IL-2, IFNγ and TNFα) were then measured using standard Elisa kits (e.g. from R&D Systems: DuoSet Elisas; or from BD Biosciences: BD Opteia Set Elisa). Results are expressed as pg/ml of supernatant of the measured cytokine. […]

The test system of a further experiment is primary human T-cells. As to the kind of experiment: IL-2 secretion by primary human T-cells. The class given is cell-based. From the text:
The JNK inhibitors used are indicated by their SEQ ID NO: 172 and 197.

Experiment [1] deals with Adriamycin-induced nephropathy in rats. As to the kind of experiment: Adriamycin-induced nephropathy. The class given is in vivo, rat. The settings on record: 2 mg/kg IV Day 0. From the text:
Adriamycin treatment induces glomerular disease in rat and mice mimicking human focal segmental and glomerular sclerosis (FSGS). In this model, tubular and interstitial inflammatory lesions occur during the disease course, partly due to heavy proteinuria. In the absence of therapy, kidney disease progresses to terminal renal failure within eight weeks. Podocyte injury is one of the initial steps in the sequences leading to glomerulosclerosis. The aim of the study was to investigate whether a JNK inhibitor could prevent the development of renal lesions and the renal failure.
30 male Sprague-Dawley rats (Charles River) were used in this study (divided into 3 groups of ten rats). Nephropathy was induced by a single intravenous injection of Adriamycin […] on Day 0. The JNK inhibitor of SEQ ID NO: 172 (2 mg/kg; in NaCl 0.9%) or vehicle was administered intravenously into the tail vein on Day 0. The administration volume was 0.2 ml.
Retroorbital blood was collected at Days 7, 14, 28, 42 and 56 from 4 rats per group. Serum creatinine concentrations, blood urea and protidemia were measured using appropriate kits from Advia Chemistry 1650 (Bayer Healthcare AG, Leverkusen, Germany).
Two rats per group were sacrificed on Days 7, 14, 28, 42 and 56 after anesthesia. After animal sacrifice, both kidneys were collected. For histopathological examination fixed tissue specimens were dehydrated in graded alcohol solutions, cleared in toluene, and embedded in paraffin. Sections (4 µm) were stained with periodic acid-Schiff (PAS), and Masson's trichrome staining was performed to detect collagen deposition. Glomerular and tubulointerstitial sclerosis were quantified under microscope.

Square brackets hold non-standard residues; d marks the D form. Peptide text beside a SMILES is read from it.

As for `CC(C)C[C@H](NC(=O)[C@H](CC(N)=O)NC(=O)[C@H](CC(C)C)NC(=O)[C@@H](NC(=O)[C@@H](C)NC(=O)[C@@H]1CCCN1C(=O)[C@H](CCCNC(=N)N)NC(=O)[C@@H](CCCCN)NC(=O)[C@@H]1CCCN1C(=O)[C@H](CCCNC(=N)N)NC(=O)[C@@H](CCCNC(=N)N)NC(=O)[C@H](CCCNC(=N)N)NC(=O)[C@H](CCCNC(=N)N)NC(=O)[C@H](CCC(N)=O)NC(=O)[C@@H](CCCNC(=N)N)NC(=O)[C@H](CCCNC(=N)N)NC(=O)[C@H](CCCCN)NC(=O)[C@H](CCCCN)NC(=O)[C@H](N)CCCNC(=N)N)[C@@H](C)O)C(=O)N[C@H](Cc1ccccc1)C(N)=O` [SEQ ID NO: 172, rKKRrQRRrRPkRPaTLNLf] (H-[dR]KKR[dR]QRR[dR]RP[dK]RP[dA]TLNL[dF]-NH2; N-terminus assumed), in the experiment with JNK (PKR−/− cultures), the c-Jun activation result was “does not modify c-Jun activation” and the “decrease of c-Jun protein expression” value amounted to 62%. The JNK activation with JNK (PKR−/− neurons) is reported as −60%. In the experiment with human whole blood, the “PMA+ionomycin-induced IFN-γ release” value was “did reduce the PMA+ionomycin-induced IFN-γ release in a dose-dependent manner”, the “PMA+ionomycin-induced IL-2 release” value was “did reduce the PMA+ionomycin-induced IL-2 release in a dose-dependent manner” and the “PMA+ionomycin-induced TNF-α release” value was “did reduce the PMA+ionomycin-induced TNF-α release in a dose-dependent manner”. In addition, in the experiment with primary human T-cells, the “IL-2 secretion in response to CD3/CD28 stimulation” value was “blocks IL-2 secretion” and the “IL-2 secretion in response to PMA/Ionomycin” value was “blocks IL-2 secretion”. Besides, in experiment [1] (Day 8), the “kidney histopathology (PAS, Masson trichrome)” value was “relatively normal appearance”. Also, in experiment [1] (Day 56), the “kidney histopathology (PAS, Masson trichrome)” value was “few focal and segmental glomerulosclerosis and tubulointerstitial fibrosis”. The urea serum level entry in experiment [1] (throughout the course of the disease) is “below 10 mmol/l”.

Source of the values: US11331364B2, “Use for JNK inhibitor molecules for treatment of various diseases” (Xigen Inflammation Ltd., priority 2014, dated 2022).
